In brackets after ≈: the same amount, converted by molar mass. Activity calls are given as the source filed them. No cut-off for these calls is given here.
Columns and labels:
[1] = Inhibition of Trypanosoma brucei recombinant farnesyltransferase using dansyl peptide containing GCAIM as substrate in presence of farnesyl pyrophosphate after 15 mins by fluorescence assay
Staphylococcus aureus = test: Antibacterial activity against Staphylococcus aureus ATCC 25923 after 24 hrs by broth microdilution method; type: functional; settings: ATCC 25923, 24 h
[2] = system: Staphylococcus intermedius; test: Antibacterial activity against Staphylococcus intermedius isolate 1051997 after 24 hrs by broth microdilution method; type: functional; settings: isolate 1051997, 24 h
[3] = Inhibition of recombinant human farnesyltransferase using dansyl-GCVLS as substrate in presence of farnesyl pyrophosphate after 15 mins by fluorescence assay
Plasmodium falciparum [4] = test: Antiplasmodial activity against chloroquine-resistant erythrocyte stage of Plasmodium falciparum FcM29-Cameroon infected in human RBC assessed as reduction in [3H]hypoxanthine incorporation preincubated for 48 hrs followed by [3H]hypoxanthine addition measured after 24 hrs by liquid scintillation counting method; type: functional
Pseudomonas aeruginosa = test: Antibacterial activity against Pseudomonas aeruginosa ATCC 27853 after 24 hrs by broth microdilution method; type: functional
Escherichia coli = test: Antibacterial activity against Escherichia coli ATCC 25922 after 24 hrs by broth microdilution method; type: functional
Plasmodium falciparum [5] = test: Antiplasmodial activity against chloroquine-sensitive IEF stage of Plasmodium falciparum NF54 infected in human RBC assessed as reduction in [3H]hypoxanthine incorporation preincubated for 48 hrs followed by [3H]hypoxanthine addition measured after 24 hrs by liquid scintillation counting method; type: functional
L6 = test: Cytotoxicity against rat L6 cells after 72 hrs by Alamar blue assay; type: cell-based; settings: L6, 72 h
[6] = Selectivity index, ratio of IC50 for rat L6 cells to IC50 for chloroquine-sensitive IEF stage of Plasmodium falciparum NF54 infected in human RBC; type: toxicity; settings: read-out: Ratio IC50

| Structure (SMILES) | IC50 [1] [µM] | MIC (Staphylococcus aureus) [µM] | MIC [2] [µM] | IC50 [3] [µM] | IC50 (Plasmodium falciparum [5]) [µM] | IC50 (Plasmodium falciparum [4]) [µM] | Activity (Pseudomonas aeruginosa) | Activity (Escherichia coli) | IC50 (L6; read-out: IC50) [µM] | IC50 (L6) [µM] | selectivity ratio [6] |
| --- | --- | --- | --- | --- | --- | --- | --- | --- | --- | --- | --- |
| CSCC[C@H](NC(=O)c1ccc(NC[C@@H](N)CS)cc1-c1ccccc1)C(=O)O | 0.01 | – | – | – | – | – | – | – | – | – | – |
| CN[C@@H]1[C@H](O[C@H]2[C@H](O[C@H]3[C@H](O)[C@@H](O)[C@H](N=C(N)N)[C@@H](O)[C@@H]3N=C(N)N)O[C@@H](C)[C@]2(O)C=O)O[C@@H](CO)[C@H](O)[C@H]1O [STREPTOMYCIN] | – | 21.5 (≈ 12.5 µg/mL) | 10.7 (≈ 6.22 µg/mL) | – | – | – | – | – | – | – | – |
| CC(C)=CCC/C(C)=C/Cc1cc(O)cc2c1OC(/C=C(\C)CCC=C(C)C)C1=C2C(=O)C2=C(C1=O)S(=O)(=O)CCN2 (stereo not drawn) | 0.74 | > 200 | > 200 | 0.78 | – | > 17 | inactive | inactive | – | – | – |
| CC(C)=CCc1cc2c(cc1O)C1=C(C(=O)C3=C(NCCS3(=O)=O)C1=O)C(C=C(C)C)O2 (stereo not drawn) | > 22 | > 200 | > 200 | > 22 | 4.8 | – | inactive | inactive | 5.2 | – | – |
| CC(C)=CCC/C(C)=C/Cc1cc2c(cc1O)C1=C(C(=O)C3=C(NCCS3(=O)=O)C1=O)C(/C=C(\C)CCC=C(C)C)O2 (stereo not drawn) | 3.04 | > 200 | > 200 | 1.22 | – | > 17 | inactive | inactive | – | – | – |
| COc1cc([C@@H]2c3cc4c(cc3[C@H](O)[C@H]3COC(=O)[C@H]23)OCO4)cc(OC)c1OC [PODOFILOX] | – | – | – | – | – | – | – | – | – | 0.012 | – |
| CC(C)=CCc1cc(O)cc2c1OC(C=C(C)C)C1=C2C(=O)C2=C(C1=O)S(=O)(=O)CCN2 (stereo not drawn) | > 22 | > 200 | > 200 | 17.3 | 8 | – | inactive | inactive | 12.8 | – | – |
| CC(C)=CCC/C(C)=C/Cc1cc2c(cc1O)C1=C(C(=O)C3=C(C1=O)S(=O)(=O)CCN3)C(/C=C(\C)CCC=C(C)C)O2 (stereo not drawn) | 0.098 | > 200 | > 200 | 0.054 | – | 4.39 | inactive | inactive | – | – | – |
| CC(C)=CCC/C(C)=C/Cc1cc(O)cc2c1OC(/C=C(\C)CCC=C(C)C)C1=C2C(=O)C2=C(NCCS2(=O)=O)C1=O (stereo not drawn) | 0.22 | > 200 | > 200 | 0.14 | – | 4.56 | inactive | inactive | – | – | – |
| O=C(N[C@H](CO)[C@H](O)c1ccc([N+](=O)[O-])cc1)C(Cl)Cl [CHLORAMPHENICOL] | – | 1.5 to 3 (≈ 0.485 to 0.969 µg/mL) | 3 to 6 (≈ 0.969 to 1.94 µg/mL) | – | – | – | – | – | – | – | – |

Further lines, with some results ahead:

| IC50 [1] [µM] | MIC (Staphylococcus aureus) [µM] | MIC [2] [µM] | IC50 [3] [µM] | IC50 (Plasmodium falciparum [5]) [µM] | Structure (SMILES) | IC50 (Plasmodium falciparum [4]) [µM] | Activity (Pseudomonas aeruginosa) | Activity (Escherichia coli) | IC50 (L6; read-out: IC50) [µM] | IC50 (L6) [µM] | selectivity ratio [6] |
| --- | --- | --- | --- | --- | --- | --- | --- | --- | --- | --- | --- |
| 1 | > 200 | > 200 | 0.45 | 3.4 | CC(C)=CCC/C(C)=C/CC/C(C)=C/Cc1cc2c(cc1O)C1=C(C(=O)C3=C(NCCS3(=O)=O)C1=O)C(/C=C(\C)CC/C=C(\C)CCC=C(C)C)O2 (stereo not drawn) | – | inactive | inactive | 25.8 | – | – |
| 1.6 | > 200 | > 200 | 1 | 33.9 | CC(C)=CCC/C(C)=C/CC/C(C)=C/C1Oc2c(cc(O)c3c2-c2cc(O)ccc2OC3/C=C(\C)CC/C=C(\C)CCC=C(C)C)C2=C1C(=O)C=CC2=O (stereo not drawn) | – | inactive | inactive | 53.2 | – | – |
| 2.3 | > 200 | > 200 | 3.1 | 0.29 | CC(C)=CCc1cc2c(cc1O)C1=C(C(=O)C3=C(C1=O)S(=O)(=O)CCN3)C(C=C(C)C)O2 (stereo not drawn) | – | inactive | inactive | 0.4 | – | – |
| 2.9 | > 200 | > 200 | 1.5 | 2.9 | CC(C)=CCC/C(C)=C/CC/C(C)=C/Cc1cc(O)cc2c1OC(/C=C(\C)CC/C=C(\C)CCC=C(C)C)C1=C2C(=O)C2=C(NCCS2(=O)=O)C1=O (stereo not drawn) | – | inactive | inactive | 16.7 | – | – |
| > 22.3 | 25 (≈ 11.2 µg/mL) | 50 (≈ 22.4 µg/mL) | > 22.3 | 20.4 | COC1=CC(=O)C2=C(C1=O)c1cc(O)ccc1OC2/C=C(\C)CC/C=C(\C)CCC=C(C)C (stereo not drawn) | – | inactive | inactive | 34.3 | – | – |
| 5.2 | > 200 | > 200 | 4.7 | 7.4 | CC(C)=CCC/C(C)=C/CC/C(C)=C/Cc1cc2c(cc1O)C1=C(C(=O)C3=C(C1=O)S(=O)(=O)CCN3)C(/C=C(\C)CC/C=C(\C)CCC=C(C)C)O2 (stereo not drawn) | – | inactive | inactive | 126 | – | 17 |
| 19.6 | > 200 | > 200 | 14.7 | 2 | CC(C)=CCc1cc(O)cc2c1OC(C=C(C)C)C1=C2C(=O)C2=C(NCCS2(=O)=O)C1=O (stereo not drawn) | – | inactive | inactive | 4.2 | – | – |
| 3.3 | 6.25 (≈ 2.62 µg/mL) | 3.12 (≈ 1.31 µg/mL) | 1.7 | 7.2 | CC(C)=CCC/C(C)=C/CC/C(C)=C/C1Oc2ccc(O)cc2C2=C1C(=O)C=CC2=O (stereo not drawn) | – | inactive | inactive | 23.5 | – | – |
| 0.35 | > 200 | > 200 | 0.17 | 4 | CC(C)=CCC/C(C)=C/CC/C(C)=C/Cc1cc(O)cc2c1OC(/C=C(\C)CC/C=C(\C)CCC=C(C)C)C1=C2C(=O)C2=C(C1=O)S(=O)(=O)CCN2 (stereo not drawn) | – | inactive | inactive | 30.6 | – | – |
